# Experimental data as given in the Kinase Knowledgebase extract (Sharma et al. 2016).
# Target: CDK2 (human) (UniProt P24941)
# Assay: Enzyme Assay
row,SMILES,IC50
1,CC(C)(C)c1cc2c(NN=Cc3nc(C4CCNC4)cs3)ncnc2s1 (stereo not given),1.8 µg/mL
2,CCC(C)c1cc2c(NN=Cc3nc(CNC)cs3)ncnc2s1 (stereo not given),0.44 µg/mL
3,CC(C)(C)c1cc2c(NN=Cc3cscn3)ncnc2s1,2.2 µg/mL
4,CNCc1csc(C=NNc2ncnc3sc(C4CC4)cc23)n1,> 2 µg/mL
5,CNC(C)c1csc(C=NNc2ncnc3sc(C(C)(C)C)cc23)n1 (stereo not given),1.1 µg/mL
6,CNCc1csc(C=NNc2ncnc3sc(C4CCCCC4)cc23)n1,0.81 µg/mL
7,CC(C)(C)c1cc2c(NN=Cc3nc(C4CCNCC4)cs3)ncnc2s1,1.7 µg/mL
8,CNCc1cnc(C=NNc2ncnc3sc(C(C)(C)C)cc23)s1,0.35 µg/mL
9,CNCc1csc(C=NNc2ncnc3sc(C(C)(C)CO)cc23)n1,1.8 µg/mL
10,CC(C)(C)c1cc2c(NN=Cc3nccs3)ncnc2s1,0.2 µg/mL
11,CCC(N)c1csc(C=NNc2ncnc3sc(C(C)(C)C)cc23)n1 (stereo not given),1.4 µg/mL
12,CC(C)(C)c1cc2c(NN=Cc3cncs3)ncnc2s1,0.059 µg/mL
13,CNCc1ccc(C=NNc2ncnc3sc(C(C)(C)C)cc23)cc1,0.68 µg/mL
14,CCCC(C)c1cc2c(NN=Cc3nc(CNC)cs3)ncnc2s1 (stereo not given),1.4 µg/mL
15,CC(N)c1csc(C=NNc2ncnc3sc(C(C)(C)C)cc23)n1 (stereo not given),0.83 µg/mL
16,CNCc1csc(C=NNc2ncnc3sc(C(C)(C)CF)cc23)n1,1.8 µg/mL
17,CNCc1csc(C=NNc2ncnc3sc(C(C)C)cc23)n1,1.5 µg/mL
18,CC(N)c1csc(C=NNc2ncnc3sc(C(C)(C)CF)cc23)n1 (stereo not given),0.68 µg/mL
19,CC(C)(C)c1cc2c(NN=Cc3nc4c(s3)CNC4)ncnc2s1,0.2 µg/mL
20,CNCc1csc(C=NNc2ncnc3sc(C(C)C(C)C)cc23)n1 (stereo not given),0.88 µg/mL
21,CNCc1csc(C=NNc2ncnc3sc(C4CCC4)cc23)n1,1.4 µg/mL
22,CC(C)(C)c1cc2c(NN=Cc3nc(C4CNC4)cs3)ncnc2s1,1 µg/mL
23,CC(C)(C)c1cc2c(NN=Cc3nc(CN)cs3)ncnc2s1,0.38 µg/mL
24,CN(C)Cc1csc(C=NNc2ncnc3sc(C(C)(C)C)cc23)n1,1.4 µg/mL
25,CNCc1csc(C=NNc2ncnc3sc(C(C)(C)C)cc23)n1,0.98 µg/mL
